How the values were obtained:
Assay in all cases: relative viability (nuclei count vs DMSO), 5 days (fraction); higher = more cells survive
[1] = compound: CN(C)CC1=CC(=CC=C1)N=C(C2=CC=CC=C2)C3=C(NC4=C3C=CC(=C4)C(=O)N(C)C)O + Cc1nc(Nc2ncc(C(=O)Nc3c(C)cccc3Cl)s2)cc(N2CCN(CCO)CC2)n1 [Dasatinib] (partner 0.075 µM)
Outline: (§1)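 Medians of duplicate plates are given as relative viability. That measure is the nuclei count in treated wells divided by the count in vehicle wells. Counts were taken on 4× images of lung cancer cell lines in 1536-well plates, 5 days after pin-tool dosing the day after seeding with one drug alone or a fixed anchor-drug dose plus five library-drug doses (not always all listed) in √10 steps.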

[2] = compound: CN(C)CC1=CC(=CC=C1)N=C(C2=CC=CC=C2)C3=C(NC4=C3C=CC(=C4)C(=O)N(C)C)O + CC(C)C[C@H](NC(=O)[C@H](Cc1ccccc1)NC(=O)c1cnccn1)B(O)O [Bortezomib] (partner 0.002 µM)
Outline: as §1

[3] = compound: CN(C)CC1=CC(=CC=C1)N=C(C2=CC=CC=C2)C3=C(NC4=C3C=CC(=C4)C(=O)N(C)C)O + CC(=O)c1c(C)c2cnc(Nc3ccc(N4CCNCC4)cn3)nc2n(C2CCCC2)c1=O [Palbociclib] (partner 0.5 µM)
Outline: as §1

[4] = compound: CN(C)CC1=CC(=CC=C1)N=C(C2=CC=CC=C2)C3=C(NC4=C3C=CC(=C4)C(=O)N(C)C)O + Cc1nc(NC(=O)N2CCC[C@H]2C(N)=O)sc1-c1ccnc(C(C)(C)C(F)(F)F)c1 [Alpelisib] (partner 2 µM)
Outline: as §1

| Cell Line | relative viability ([1]; first compound 0.08 µM) | relative viability ([1]; first compound 0.253 µM) | relative viability ([1]; first compound 0.8 µM) | relative viability ([1]; first compound 2.53 µM) | relative viability ([1]; first compound 8 µM) | relative viability ([2]; first compound 0.08 µM) | relative viability ([2]; first compound 0.253 µM) | relative viability ([2]; first compound 0.8 µM) | relative viability ([2]; first compound 2.53 µM) | relative viability ([2]; first compound 8 µM) | relative viability ([3]; first compound 0.08 µM) | relative viability ([3]; first compound 0.253 µM) | relative viability ([3]; first compound 0.8 µM) | relative viability ([3]; first compound 2.53 µM) | relative viability ([3]; first compound 8 µM) | relative viability ([4]; first compound 0.08 µM) | relative viability ([4]; first compound 0.253 µM) | relative viability ([4]; first compound 0.8 µM) | relative viability ([4]; first compound 2.53 µM) | relative viability ([4]; first compound 8 µM) |
| --- | --- | --- | --- | --- | --- | --- | --- | --- | --- | --- | --- | --- | --- | --- | --- | --- | --- | --- | --- | --- |
| NCI-H2228 | 0.518 | 0.484 | 0.479 | 0.424 | 0.412 | 1.09 | 1.15 | 1.11 | 0.779 | 0.94 | 0.825 | 0.602 | 0.715 | 0.673 | 0.77 | 0.452 | 0.753 | 0.859 | 0.687 | 0.588 |
| NCI-H1299 | – | – | – | – | – | 1.02 | 1.04 | 1.01 | 0.996 | 0.912 | – | – | – | – | – | 0.953 | 1.04 | 1.05 | 1.04 | 1.02 |
| NCI-H1563 | 0.437 | 0.489 | 0.579 | 0.389 | 0.411 | 0.868 | 0.921 | 0.729 | 0.755 | 0.737 | – | – | – | – | – | 1.03 | 1.03 | 0.956 | 0.875 | 0.847 |
| NCI-H647 | 0.201 | 0.235 | 0.173 | 0.195 | 0.111 | 1.02 | 1.01 | 1.01 | 0.846 | 0.776 | 0.431 | 0.433 | 0.471 | 0.45 | 0.382 | 1.2 | 1.14 | 1.14 | 0.98 | 0.66 |
| NCI-H838 | 0.304 | 0.304 | 0.247 | 0.281 | 0.284 | 0.792 | 0.8 | 0.916 | 0.757 | 0.73 | 0.253 | 0.243 | 0.199 | 0.198 | 0.177 | 1.06 | 0.956 | 0.977 | 0.883 | 0.934 |
| NCI-H727 | 0.357 | 0.374 | 0.382 | 0.54 | 0.509 | 0.872 | 0.764 | 0.786 | 0.739 | 0.764 | – | 0.617 | 0.593 | 0.391 | 0.74 | 0.631 | 0.564 | 0.621 | 0.603 | 0.608 |
| NCI-H661 | 0.979 | 0.747 | 0.679 | 0.8 | 0.856 | 0.897 | 0.707 | 0.918 | 0.873 | 0.607 | 0.435 | 0.381 | 0.391 | 0.392 | 0.429 | 0.67 | 0.635 | 0.37 | 0.685 | 0.614 |
| 201T | 0.544 | 0.603 | 0.575 | 0.54 | 0.493 | 1.13 | 1.15 | 1.08 | 1.06 | 0.994 | 0.331 | 0.346 | 0.341 | 0.384 | 0.352 | 1 | 0.968 | 0.977 | 0.962 | 0.955 |
| PC-3 [JPC-3] | 1.01 | 1.03 | 0.911 | 0.914 | 0.992 | 0.856 | 0.826 | 0.759 | 0.886 | 0.866 | 0.543 | 0.573 | 0.534 | 0.557 | 0.602 | 1.02 | 0.976 | 1.04 | 1.01 | 1.02 |
| LK-2 | 0.296 | 0.389 | 0.25 | 0.328 | 0.275 | – | – | – | – | – | 0.52 | 0.814 | 0.605 | 0.561 | 0.541 | 1.2 | 0.924 | 0.897 | 0.928 | 0.881 |
| Calu-6 | – | – | – | – | – | 1.02 | 1.06 | 1.05 | 1.13 | 1.06 | – | – | – | – | – | 1.05 | 1.11 | 1.06 | 0.971 | 0.93 |
| NCI-H1944 | 0.216 | 0.234 | 0.219 | 0.179 | 0.156 | – | – | – | – | – | 0.32 | 0.344 | 0.282 | 0.357 | 0.33 | 0.828 | 0.799 | 0.748 | 0.826 | 0.783 |
| IA-LM | – | – | – | – | – | – | 0.876 | 1.12 | 1.06 | 1.11 | – | – | – | – | – | – | 0.806 | 0.942 | 0.88 | 1.03 |
| SK-MES-1 | 0.438 | 0.349 | 0.25 | 0.388 | 0.311 | – | – | – | – | – | 0.325 | 0.277 | 0.357 | 0.305 | 0.343 | 0.876 | 0.883 | 0.716 | 0.851 | 0.875 |
| HCC-44 | – | – | – | – | – | 0.913 | 0.872 | 0.875 | 0.803 | 0.948 | 0.966 | 1.01 | 0.973 | 0.923 | 1 | 0.787 | 0.736 | 0.768 | 0.766 | 0.77 |
| NCI-H1650 | 0.286 | 0.383 | 0.351 | 0.376 | 0.335 | 0.181 | 0.22 | 0.231 | 0.202 | 0.222 | 0.36 | 0.399 | 0.331 | 0.314 | 0.364 | – | – | – | – | – |
| NCI-H1703 | – | – | – | – | – | 0.311 | 0.307 | 0.377 | 0.29 | 0.207 | – | – | – | – | – | 0.354 | 0.282 | 0.41 | 0.22 | 0.184 |
| NCI-H2170 | 0.554 | 0.487 | 0.292 | 0.575 | 0.519 | – | – | – | – | – | 0.443 | 0.384 | 0.341 | 0.368 | 0.397 | 0.809 | 0.827 | 0.514 | 0.714 | 0.578 |
| NCI-H358 | 0.171 | 0.158 | 0.138 | 0.163 | 0.183 | – | – | – | – | – | 0.122 | 0.139 | 0.141 | 0.149 | 0.17 | 0.743 | 0.814 | 0.766 | 0.718 | 0.606 |
| ChaGo-K-1 | 0.579 | 0.61 | 0.601 | 0.567 | 0.582 | 0.986 | 1.1 | 1.03 | – | 1.12 | 0.918 | 0.905 | 0.971 | 0.94 | 0.839 | – | – | – | – | – |

— the supplement of paper PMC10307832
